Reference: ChEMBL document CHEMBL4152235, “Synthesis, anionophoric activity and apoptosis-inducing bioactivity of benzimidazolyl-based transmembrane anion transporters” (Eur J Med Chem, 2018)
Blank lines part the entries; values can stand above or below the compound they belong to. The source made the active and inactive calls. The calls are words filed in the database; no cut-off is given here.

Columns and labels:
[1] = Ionophoric activity across pyranine dye encapsulated pH 7 egg yolk L-alpha-phosphatidylcholine-based liposomal membranes assessed as bromide ion transport by measuring induction of pH discharge at 0.25 mol% after 20 mins in presence of NaBr loaded external vesicles by fluorescence method
MCF7 [2] = assay: Cytotoxicity against human MCF7 cells assessed as reduction in cell viability at 50 uM after 48 hrs by MTT assay relative to control; type: functional; details: MCF7, 48 h
[3] = (§1) Ionophoric activity across pyranine dye encapsulated pH 7 egg yolk L-alpha-phosphatidylcholine-based liposomal membranes assessed as chloride ion transport by measuring induction of pH discharge at 0.25 mol% after 20 mins in presence of KCl loaded external vesicles by fluorescence method
[4] = Ionophoric activity across pyranine dye encapsulated pH 7 egg yolk L-alpha-phosphatidylcholine-based liposomal membranes assessed as chloride ion transport by measuring induction of pH discharge after 20 mins in presence of NaCl loaded external vesicles by fluorescence method relative to m-Bimbe
[5] = Ionophoric activity across lucigenin probe encapsulated pH 7 egg yolk L-alpha-phosphatidylcholine-based large unilamellar vesicles loaded with Na2SO4 assessed as chloride ion efflux at 1 mol% after 20 mins in presence of NaCl/Na2SO4 loaded external vesicles by fluorescence method
[6] = Ionophoric activity across pyranine dye encapsulated pH 7 egg yolk L-alpha-phosphatidylcholine-based liposomal membranes assessed as chloride ion transport by measuring induction of pH discharge at 0.25 mol% after 20 mins in presence of CsCl loaded external vesicles by fluorescence method
[7] = Ionophoric activity across pyranine dye encapsulated pH 7 egg yolk L-alpha-phosphatidylcholine-based liposomal membranes assessed as iodide ion transport by measuring induction of pH discharge at 0.25 mol% after 20 mins in presence of NaI loaded external vesicles by fluorescence method
[8] = Ionophoric activity across pyranine dye encapsulated pH 7 egg yolk L-alpha-phosphatidylcholine-based liposomal membranes assessed as chloride ion transport by measuring induction of pH discharge at 0.25 mol% after 20 mins in presence of RbCl loaded external vesicles by fluorescence method
HepG2 [9] = assay: Cytotoxicity against human HepG2 cells assessed as reduction in cell viability at 50 uM after 48 hrs by MTT assay relative to control; type: functional; details: HepG2, 48 h
[10] = Binding affinity to chloride ion assessed as 1:1 compound-Cl- complex formation at 4.1 mM using tetra(n-butyl)ammonium chloride by ESI MS spectrometric method
[11] = Binding affinity to chloride ion at 1.5 x 10^-5M using tetra(n-butyl)ammonium chloride measured after 5 mins by spectrophotometric titration method
[12] = Ionophoric activity across pyranine dye encapsulated pH 7 egg yolk L-alpha-phosphatidylcholine-based liposomal membranes assessed as nitrate ion transport by measuring induction of pH discharge at 0.25 mol% after 20 mins in presence of NaNO3 loaded external vesicles by fluorescence method
[13] = Ionophoric activity across lucigenin probe encapsulated pH 7 egg yolk L-alpha-phosphatidylcholine-based large unilamellar vesicles loaded with NaNO3 assessed as chloride ion efflux at 0.0625 to 1 mol% after 20 mins in presence of NaCl loaded external vesicles by fluorescence method
[14] = Ionophoric activity across lucigenin probe encapsulated pH 7 egg yolk L-alpha-phosphatidylcholine-based large unilamellar vesicles loaded with Na2SO4 assessed as chloride ion efflux at 1 mol% after 20 mins in presence of NaCl loaded external vesicles by fluorescence method
[15] = as §1, with “measuring initial rate constant for” for “measuring”, “0.1250” for “0.25”, “NaCl” for “KCl”, “method (reference value: 5.03 +/- 1.02 10^-3/min)” for “method”
[16] = Ionophoric activity across pyranine dye encapsulated pH 7 egg yolk L-alpha-phosphatidylcholine-based liposomal membranes assessed as chloride ion transport by measuring induction of pH discharge at 0.25 mol% after 20 mins in presence of LiCl loaded external vesicles by fluorescence method
[17] = as §1, with “measuring initial rate constant for” for “measuring”, “0.2500” for “0.25”, “NaCl” for “KCl”, “method (reference value: 5.03 +/- 1.02 10^-3/min)” for “method”
A549 [18] = assay: Cytotoxicity against human A549 cells assessed as reduction in cell viability at 50 uM after 48 hrs by MTT assay relative to control; type: functional; details: A549, 48 h
[19] = Ionophoric activity across pyranine dye encapsulated pH 7 POPC-cholesterol-based liposomal membranes assessed as chloride ion transport by measuring induction of pH discharge at 1 mol% after 20 mins in presence of NaCl loaded external vesicles by fluorescence method
[20] = as §1, with “measuring initial rate constant for” for “measuring”, “0.5” for “0.25”, “NaCl” for “KCl”, “method (reference value: 5.03 +/- 1.02 10^-3/min)” for “method”
[21] = Ionophoric activity across pyranine dye encapsulated pH 7 egg yolk L-alpha-phosphatidylcholine-based liposomal membranes assessed as chloride ion transport by measuring induction of pH discharge after 20 mins in presence of NaCl loaded external vesicles by fluorescence method
[22] = (§2) Ionophoric activity across pyranine dye encapsulated pH 7 egg yolk L-alpha-phosphatidylcholine-based liposomal membranes assessed as chloride ion transport by measuring induction of pH discharge at 0.25 mol% after 20 mins in presence of NaCl loaded external vesicles by fluorescence method
HeLa [23] = assay: Cytotoxicity against human HeLa cells assessed as reduction in cell viability at 50 uM after 48 hrs by MTT assay relative to control; type: functional
[24] = as §2, with “measuring initial rate constant for” for “measuring”, “1.0” for “0.25”, “method (reference value: 5.03 +/- 1.02 10^-3/min)” for “method”
[25] = as §2, with “measuring initial rate constant for” for “measuring”, “0.0625” for “0.25”, “method (reference value: 5.03 +/- 1.02 10^-3/min)” for “method”
[26] = (§3) Ionophoric activity across pyranine dye encapsulated pH 7 egg yolk L-alpha-phosphatidylcholine-based liposomal membranes assessed as chloride ion transport by measuring induction of pH discharge at 1.95 x 10^-3 mol% after 20 mins in presence of KCl loaded external vesicles by fluorescence method
[27] = Ionophoric activity across pyranine dye encapsulated pH 7 egg yolk L-alpha-phosphatidylcholine-based liposomal membranes assessed as bromide ion transport by measuring induction of pH discharge at 1.95 x 10^-3 mol% after 20 mins in presence of NaBr loaded external vesicles by fluorescence method
[28] = as §2, with “measuring initial rate constant for” for “measuring”, “1.56 x 10^-2” for “0.25”, “method (reference value: 5.03 +/- 1.02 10^-3/min)” for “method”
[29] = Ionophoric activity across lucigenin probe encapsulated pH 7 egg yolk L-alpha-phosphatidylcholine-based large unilamellar vesicles loaded with Na2SO4 assessed as chloride ion efflux at 1.56 x 10^-2mol% after 20 mins in presence of NaCl/Na2SO4 loaded external vesicles by fluorescence method
[30] = Ionophoric activity across pyranine dye encapsulated pH 7 egg yolk L-alpha-phosphatidylcholine-based liposomal membranes assessed as nitrate ion transport by measuring induction of pH discharge at 1.95 x 10^-3 mol% after 20 mins in presence of NaNO3 loaded external vesicles by fluorescence method
[31] = as §3, with “measuring initial rate constant for” for “measuring”, “NaCl” for “KCl”, “method (reference value: 5.03 +/- 1.02 10^-3/min)” for “method”
[32] = Ionophoric activity across pyranine dye encapsulated pH 7 egg yolk L-alpha-phosphatidylcholine-based liposomal membranes assessed as chloride ion transport by measuring induction of pH discharge at 1.95 x 10^-3 mol% after 20 mins in presence of RbCl loaded external vesicles by fluorescence method
[33] = Ionophoric activity across pyranine dye encapsulated pH 7 egg yolk L-alpha-phosphatidylcholine-based liposomal membranes assessed as chloride ion transport by measuring induction of pH discharge at 1.95 x 10^-3 mol% after 20 mins in presence of CsCl loaded external vesicles by fluorescence method
[34] = Ionophoric activity across pyranine dye encapsulated pH 7 egg yolk L-alpha-phosphatidylcholine-based liposomal membranes assessed as chloride ion transport by measuring induction of pH discharge at 1.95 x 10^-3 mol% after 20 mins in presence of LiCl loaded external vesicles by fluorescence method
[35] = as §3, with “measuring initial rate constant for” for “measuring”, “3.91” for “1.95”, “NaCl” for “KCl”, “method (reference value: 5.03 +/- 1.02 10^-3/min)” for “method”
[36] = as §2, with “measuring initial rate constant for” for “measuring”, “9.77 x 10^-4” for “0.25”, “method (reference value: 5.03 +/- 1.02 10^-3/min)” for “method”
[37] = (§4) Ionophoric activity across pyranine dye encapsulated pH 7 egg yolk L-alpha-phosphatidylcholine-based liposomal membranes assessed as chloride ion transport by measuring induction of pH discharge at 1.95 x 10^-3 mol% after 20 mins in presence of NaCl loaded external vesicles by fluorescence method
[38] = as §4, with “measuring initial rate constant for” for “measuring”, “4.88” for “1.95”, “10^-4” for “10^-3”, “method (reference value: 5.03 +/- 1.02 10^-3/min)” for “method”
[39] = Ionophoric activity across pyranine dye encapsulated pH 7 egg yolk L-alpha-phosphatidylcholine-based liposomal membranes assessed as iodide ion transport by measuring induction of pH discharge at 1.95 x 10^-3 mol% after 20 mins in presence of NaI loaded external vesicles by fluorescence method
HepG2 [40] = assay: Cytotoxicity against human HepG2 cells assessed as reduction in cell viability after 48 hrs by MTT assay; type: functional, cell-based; details: HepG2, 48 h
MCF7 [41] = assay: Cytotoxicity against human MCF7 cells assessed as reduction in cell viability after 48 hrs by MTT assay; type: functional, cell-based; details: MCF7, 48 h
[42] = Ionophoric activity across lucigenin probe encapsulated pH 7 egg yolk L-alpha-phosphatidylcholine-based large unilamellar vesicles loaded with Na2SO4 assessed as chloride ion efflux at 1.56 x 10^-2mol% after 20 mins in presence of NaCl loaded external vesicles by fluorescence method
A549 [43] = assay: Cytotoxicity against human A549 cells assessed as reduction in cell viability after 48 hrs by MTT assay; type: functional, cell-based; details: A549, 48 h
[44] = Ionophoric activity across pyranine dye encapsulated pH 7 POPC-cholesterol-based liposomal membranes assessed as chloride ion transport by measuring induction of pH discharge at 7.81 x 10^-3mol% after 20 mins in presence of NaCl loaded external vesicles by fluorescence method
[45] = as §4, with “measuring initial rate constant for” for “measuring”, “7.81” for “1.95”, “method (reference value: 5.03 +/- 1.02 10^-3/min)” for “method”
HeLa [46] = assay: Cytotoxicity against human HeLa cells assessed as reduction in cell viability after 48 hrs by MTT assay; type: functional, cell-based
L02 = assay: Cytotoxicity against human LO2 cells assessed as reduction in cell viability after 48 hrs by MTT assay; type: cell-based; details: L02, 48 h

Activity [1]: inactive | Activity [3]: Active | fold change (FC) [4]: 13 | Activity [5]: inactive | Activity [6]: Active | Activity [7]: inactive | Activity [8]: Active | Activity [10]: Active | Ka [11]: 3.94 ×10³ /M | Activity [12]: inactive | Activity [13]: Active | Activity [14]: inactive | K [15]: 4.89 ×10⁻² /min | Activity [16]: Active | K [17]: 6.81 ×10⁻² /min | Activity [19]: inactive | K [20]: 1.28 ×10⁻¹ /min | Activity [21]: Dose-dependent effect | EC50 [21]: 0.49 mol% | EC50 ([21]; read-out: EC50): 6.5 µM | Activity [22]: Active | K [24]: 1.61 ×10⁻¹ /min | K [25]: 3.38 ×10⁻² /min
SMILES: O=[N+]([O-])c1cc(-c2nc3ccccc3[nH]2)cc(-c2nc3ccccc3[nH]2)c1
inhibition at 50 µM (MCF7 [2]): 48.2% | inhibition at 50 µM (HepG2 [9]): -2.6% | inhibition at 50 µM (A549 [18]): 45.9% | inhibition at 50 µM (HeLa [23]): 42.5%

Activity [26]: Active | Activity [27]: inactive | K [28]: 1.99 ×10⁻¹ /min | Activity [29]: inactive | Activity [30]: inactive | K [31]: 8.98 ×10⁻² /min | fold change (FC) [4]: 2370 | Activity [32]: Active | Activity [33]: Active | Activity [34]: Active | K [35]: 1.35 ×10⁻² /min | Activity [10]: Active | Ka [11]: 8.18 ×10³ /M | K [36]: 6.25 ×10⁻² /min | Activity [37]: Active | K [38]: 2.43 ×10⁻² /min | Activity [39]: inactive | Activity [42]: inactive | Activity [44]: inactive | Activity [21]: Dose-dependent effect | EC50 [21]: 2.73 ×10⁻³ mol% | EC50 ([21]; read-out: EC50): 0.036 µM | K [45]: 1.81 ×10⁻¹ /min
SMILES: O=[N+]([O-])c1cc(-c2nc3ccc([N+](=O)[O-])cc3[nH]2)cc(-c2nc3ccc([N+](=O)[O-])cc3[nH]2)c1
inhibition at 50 µM (MCF7 [2]): 94.7% | inhibition at 50 µM (HepG2 [9]): 81.3% | inhibition at 50 µM (A549 [18]): 78.7% | IC50 (HepG2 [40]): 11.1 µM | IC50 (MCF7 [41]): 1.2 µM | IC50 (A549 [43]): 13.6 µM | inhibition at 50 µM (HeLa [23]): 94.1% | IC50 (HeLa [46]): 1.2 to 1.3 µM | IC50 (L02): 44.9 µM
